Experimental data taken from BindingDB's records for doi:10.1016/0014-2999(86)90335-3 (Janssen Pharmaceutica, 1986).
Several values for one entry are separate records, joined by “and”; a condition that tells them apart may be missing. Identical values can stand only once.

What was measured:
[1] = target: T1, Alpha-1A adrenergic receptor (Rattus norvegicus, UniProt P43140)
T1 sequence (P43140 whole entry): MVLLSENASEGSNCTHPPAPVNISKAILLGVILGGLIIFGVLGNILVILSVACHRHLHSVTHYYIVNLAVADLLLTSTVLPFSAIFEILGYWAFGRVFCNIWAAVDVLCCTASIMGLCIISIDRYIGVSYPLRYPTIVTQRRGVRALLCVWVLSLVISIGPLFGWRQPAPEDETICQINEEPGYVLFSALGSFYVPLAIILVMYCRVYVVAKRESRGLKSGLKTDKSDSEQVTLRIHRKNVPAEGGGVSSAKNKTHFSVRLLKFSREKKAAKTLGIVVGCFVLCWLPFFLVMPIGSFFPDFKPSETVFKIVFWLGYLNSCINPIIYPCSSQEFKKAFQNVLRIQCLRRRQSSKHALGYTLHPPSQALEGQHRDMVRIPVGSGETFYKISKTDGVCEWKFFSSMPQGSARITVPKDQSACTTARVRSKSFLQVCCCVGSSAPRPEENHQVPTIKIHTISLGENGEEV

[2] = target: T2, Alpha-2C adrenergic receptor (Rattus norvegicus, UniProt P22086)
T2 sequence (P22086 whole entry): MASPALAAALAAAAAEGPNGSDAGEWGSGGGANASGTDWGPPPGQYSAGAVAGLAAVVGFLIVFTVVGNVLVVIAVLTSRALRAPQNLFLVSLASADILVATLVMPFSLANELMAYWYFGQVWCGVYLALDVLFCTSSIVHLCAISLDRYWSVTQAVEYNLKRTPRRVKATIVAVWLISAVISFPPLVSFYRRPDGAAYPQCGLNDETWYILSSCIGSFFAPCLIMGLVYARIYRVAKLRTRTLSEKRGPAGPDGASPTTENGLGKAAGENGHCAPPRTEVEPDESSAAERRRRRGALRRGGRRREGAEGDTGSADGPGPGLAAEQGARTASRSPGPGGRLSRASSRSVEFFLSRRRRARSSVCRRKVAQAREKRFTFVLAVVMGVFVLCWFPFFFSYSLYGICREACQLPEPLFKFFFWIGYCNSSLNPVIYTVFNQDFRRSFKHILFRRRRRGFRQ

Structure (SMILES) | Ki [1] | Ki [2]
Cc1nc2n(c(=O)c1CCN1CCC(C(=O)c3ccc(F)cc3)CC1)CCS2 [CAS_86487-64-1] | 32 nM | –
N#Cc1ccc2c(c1)N(CCCN1CCC(O)CC1)c1ccccc1S2 | 4.1 nM | –
CN1C[C@H](C(=O)N[C@]2(C)O[C@@]3(O)[C@@H]4CCCN4C(=O)[C@H](Cc4ccccc4)N3C2=O)C=C2c3cccc4[nH]cc(c34)C[C@H]21 [12'-hydroxy-2'-methyl-5'alpha-(phenylmethyl)ergotaman-3',6',18-trione] | 25 nM | 12 nM and 4 nM and 3.5 nM and 6.3 nM
CS(=O)(=O)c1ccc2c(c1)N(CCCN1CCC(C(N)=O)CC1)c1ccccc1S2 [NSC_26388] | 2.5 nM | –
O=C(c1ccc(F)cc1)C1CCN(CCn2c(=S)[nH]c3ccccc3c2=O)CC1 | – | 290 nM and 200 nM and 280 nM and 71 nM
O=C(c1ccc(F)cc1)C1CCN(CCCCn2c(=O)[nH]c3ccccc3c2=O)CC1 [CAS_87051-46-5] | 0.45 nM | 500 nM and 400 nM and 66 nM and 60 nM
Cc1nc2ccccn2c(=O)c1CCN1CCC(C(=O)c2ccc(F)cc2)CC1 | 20 nM | 7.9 nM and 4.5 nM and 18 nM and 20 nM
CN1CCN(CC/C=C2/c3ccccc3Sc3ccc(S(=O)(=O)N(C)C)cc32)CC1 [MLS000028463] | 25 nM | 1200 nM and 1400 nM
Cc1ccc2nc(C)c(CCN3CCC(C(=O)c4ccc(F)cc4)CC3)c(=O)n2c1 [CAS_72005] | 7.9 nM | 10 nM and 2.5 nM and 2.8 nM
c1ccc2c(c1)OCC(C1=NCCN1)O2 (configuration not stated) | 1000 nM | –
c1ccc(CC2=NCCN2)cc1 [Tolazoline] | 3200 nM | 450 nM and 120 nM and 890 nM and 500 nM
